Where two headings read alike, the source gives them in different places.
What was measured:
Kir1.1 (ROMK1) = Kir1.1 (ROMK1) (Homo sapiens (Human), UniProt P48048); test: Electrophysiology Assay (whole cell voltage clamp, IonWorks Quattro); assay type: cell-based
Excerpt: Several assays may be used to measure functional inhibition of the ROMK channel by compounds of the instant invention. One assay that can be used is an electrophysiology assay that measures the electrical current that is generated as potassium permeates through the channel.
Block of Kir1.1 (ROMK1) currents was examined by whole cell voltage clamp (Hamill et. al. Pfluegers Archives 391:85-100 (1981)) using the IonWorks® Quattro automated electrophysiology platform (Molecular Devices, Sunnyvale, Calif.). Chinese hamster ovary cells stably expressing Kir1.1 channels were maintained in T-75 flasks in cell culture media in a humidified 10% CO2 incubator at 37° C. Prior to an experiment, Kir1.1 expression was induced by overnight incubation with 1 mM sodium butyrate. On the day of the experiment, cells were dissociated with 2.5 ml of Versene™ (Invitrogen 15040-066) for approximately 6 minutes at 37° C. and suspended in 10 ml of bath solution containing (in mM): 150 NaCl, 10 KCl, 2.7 CaCl2, 0.5 MgCl2, 5 HEPES, pH 7.4. After centrifugation, the cell pellet was resuspended in approximately 4.0 ml of bath solution and placed in the IonWorks® instrument. The intracellular solution consisted of (in mM): 80 K gluconate, 40 KCl, 20 KF, 3.2 MgCl2, 3 EGTA, 5 Hepes, pH 7.4. Electrical access to the cytoplasm was achieved by perforation in 0.13 mg/ml amphotericin B for 4 minutes. Amphotericin B (Sigma A-4888) was prepared as a 40 mg/ml solution in DMSO.
Voltage protocols and current recordings were performed using the IonWorks® HT software/hardware system. Currents were sampled at 1 kHz. No correction for liquid junction potentials was used. The test pulse, consisting of a 100 ms step to 0 mV from a holding potential of −70 mV, followed by a 100 ms voltage ramp from −70 mV to +70 mV, was applied before and after a 6 minutes compound incubation period. Test compounds were prepared by diluting DMSO stock solutions into the bath solution at 3× the final concentration and placed in the instrument in 96-well polypropylene plates. Current amplitudes were measured using the IonWorks® software. To assess compound potency, the fractional block during the voltage step to 0 mV was calculated in Microsoft® Excel (Microsoft, Redmond, Calif.), and dose-response curves were fitted with Igor Pro 4.0 (WaveMetrics, Lake Oswego, Oreg.).

hROMK (hKir1.1) = hROMK (hKir1.1) (Homo sapiens (Human), UniProt P48048); test: Thallium Flux Assay (ROMK channel functional thallium flux, FLIPR-Tetra); assay type: cell-based
Protocol: Another ROMK functional assay makes use of the ability of thallium to permeate through open ROMK channels and increase the fluorescence of a dye previously loaded into the cells. Under control conditions, cells loaded with dye and exposed to thallium-containing medium display a time-dependent increase in fluorescence, the rate of which depends on number of functional channels. When cells are incubated in the presence of a channel inhibitor, the increase in fluorescence is attenuated in a concentration-dependent manner, and IC50 values of inhibition by compounds can be accurately determined. This assay has been established with cell lines expressing either human, or rat ROMK channels, and operates in 384-well format.
HEK293 cells stably expressing hROMK (hKir1.1) were grown at 37° C. in a 10% CO2 humidified incubator in complete growth media: Dulbecco's Modified Eagle Medium supplemented with non-essential amino acids, Penicillin/Streptomycin/Glutamine, G418 and FBS. At >80% confluency, the media was aspirated from the flask and the sample was rinsed with 10 ml Calcium/Magnesium-free PBS. […] To dislodge the cell, the side of the flask was gently banged with a hand. The cells were triturated completely and then transferred to 25 ml complete media. The sample was then centrifuged at 1,500 rpm for 6 minutes, followed by resuspension in complete growth media and then cell concentration was determined. […] Under ideal growth conditions and appropriate tissue culture practices, this cell line is stable for 40-45 passages.
FluxOR Kit Components (Invitrogen F10017)
• FluxOR™ Reagent (Component A) • FluxOR™ Assay Buffer (Component B)—10× Concentrate • PowerLoad™ Concentrate (Component C)—100× Concentrate • Probenecid (Component D)—Lyophilized sample is kept at −20° C. Water soluble, 100× after solubilization in 1 ml water. […] Store at 4° C. • Thallium sulfate (Tl2SO4) Concentrate (Component G)—50 mM in water. Store at 4° C. • DMSO (dimethyl sulfoxide, Component H)—1 ml (100%) Reagent Preparation— FluxOR Working Solutions • 1000× FluxOR™ Reagent: Reconstitute a vial of component A in 100 μl DMSO; Mix well; Store 10 μl aliquots at −20° C. • 1× FluxOR™ Assay Buffer: Dilute Component B 10-fold with water; Adjust pH to 7.4 with Hepes/NaOH; Filter and store at 4° C. • Probenecid/Assay Buffer: 100 ml of 1× FluxOR™ Assay Buffer; 1 ml of reconstituted component D; Store at 4° C. • Loading Buffer (per microplate): 10 μl 1000× FluxOR™ Reagent; 100 μl component C; 10 ml Probenecid/Assay Buffer • Compound Buffer (per microplate): 20 ml Probenecid/Assay Buffer; 0.3 mM ouabain (10 mM ouabain in water can be stored in amber bottle/aluminum foil at room temperature);
Test compound • 1× FluxOR™ Chloride-Free Buffer: Prepare 1× working solution in water. Can be stored at room temperature • Stimulant Buffer (prepared at 5× final concentration in 1× FluxOR™ Chloride-Free Buffer): 7.5 mM Thallium sulfate and 0.75 mM Potassium sulfate (to give a final assay concentration of 3 mM Thallium/0.3 mM Potassium). Store at 4° C. when not in use. If kept sterile, this solution is good for months. Assay Protocol—
The ROMK channel functional thallium flux assay is performed in 384 wells, using the FLIPR-Tetra instrument. HEK-hKir1.1 cells are seeded in Poly-D-Lysine microplates and kept in a 37° C.-10% CO2 incubator overnight. On the day of the experiment, the growth media is replaced with the FluxOR™ reagent loading buffer and incubated, protected from light, at ambient temperature (23-25° C.) for 90 min. The loading buffer is replaced with assay buffer±test compound followed by 30 min incubation at ambient temperature, where the Thallium/Potassium stimulant is added to the microplate.
• 1. Seed HEK-hKir1.1 cells (50 μl at 20,000 cells/well) in 384-well PDL coated Microplates • 2. Allow cells to adhere overnight in humidified 37° C./10% CO2 incubator • 3. Completely remove cell growth media from microplate and replace with 25 μl loading buffer • 4.

[1] = Chinese hamster ovary cells stably expressing Kir1.1, block during voltage step to 0 mV, read-out: EP Assay IC50
[2] = HEK293 cells stably expressing hROMK (hKir1.1), read-out: Thallium Flux Assay IC50
[3] = read-out: Thallium Flux Assay IC50

hROMK (hKir1.1), sequence (P48048 whole entry): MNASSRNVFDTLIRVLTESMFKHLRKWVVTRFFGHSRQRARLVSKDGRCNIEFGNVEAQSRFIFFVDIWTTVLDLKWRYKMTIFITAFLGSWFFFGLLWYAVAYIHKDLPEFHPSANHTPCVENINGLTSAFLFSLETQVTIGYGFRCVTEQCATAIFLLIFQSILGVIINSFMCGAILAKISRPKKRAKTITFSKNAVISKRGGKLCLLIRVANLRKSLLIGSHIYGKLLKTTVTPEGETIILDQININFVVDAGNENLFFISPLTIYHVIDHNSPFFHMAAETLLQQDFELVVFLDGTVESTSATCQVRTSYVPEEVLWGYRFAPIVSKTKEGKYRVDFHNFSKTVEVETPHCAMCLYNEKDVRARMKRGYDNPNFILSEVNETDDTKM
Kir1.1 (ROMK1), sequence (P48048 whole entry, species assumed): as the sequence (P48048 whole entry) above

Row | Compound | IC50 (Kir1.1 (ROMK1); [1]) | IC50 (hROMK (hKir1.1); [2]) | other results
1 | Cc1c([C@@H](O)CN2C3CCC2C2CCC3N2CC(O)c2ccc(C#N)cn2)ccc2c1COC2=O (single isomer, unassigned) [Example 5] | 197 nM | 377 nM | –
2 | COc1cc(C(O)CN2C3CCC2C2CCC3N2C[C@H](O)c2ccc3c(c2C)COC3=O)ncc1C#N (single isomer, unassigned) [Example 6] | 21 nM | 26 nM | –
3 | Cc1c([C@@H](O)CN2C3CCC2C2CCC3N2CC(O)c2ccc(C#N)cn2)ccc2c1COC2=O (single isomer, unassigned) [Example 8] | – | 915 nM | –
4 | COc1cc(C(O)CN2C3CCC2C2CCC3N2C[C@H](O)c2ccc3c(c2C)COC3=O)ncc1C#N (single isomer, unassigned) [Example 9] | 23 nM | 23 nM | –
5 | Cc1c([C@@H](O)CN2CC3CCC2CN3S(=O)(=O)c2ccc(-n3cnnn3)cc2)ccc2c1COC2=O (single isomer, unassigned) [Example 17A] | 170 nM | 508 nM | –
6 | Cc1c([C@@H](O)CN2CC3CCC2CN3S(=O)(=O)c2ccc(-n3cnnn3)cc2)ccc2c1COC2=O (single isomer, unassigned) [Example 17B] | – | 997 nM | –
7 | Cc1c([C@@H](O)CN2C3COCC2CN(CC(O)c2ccc4c(c2)C[C@H](C)OC4=O)C3)ccc2c1COC2=O (single isomer, unassigned) [Example 23A] | 2460 nM | – | IC50 (hROMK (hKir1.1); Thallium Flux Assay IC50): 461 nM
8 | Cc1c([C@@H](O)CN2C3COCC2CN(CC(O)c2ccc4c(c2)C[C@H](C)OC4=O)C3)ccc2c1COC2=O (single isomer, unassigned) [Example 23B] | – | – | IC50 (Kir1.1 (ROMK1)): 64 nM; IC50 (hROMK (hKir1.1); Thallium Flux Assay IC50): 40.5 nM
9 | Cc1c([C@@H](O)CN2C3COCC2CN(CC(O)c2ccc4c(c2)C[C@@H](C)OC4=O)C3)ccc2c1COC2=O (single isomer, unassigned) [Example 24A] | – | – | IC50 (hROMK (hKir1.1); Thallium Flux Assay IC50): 2040 nM
10 | Cc1c([C@@H](O)CN2C3COCC2CN(CC(O)c2ccc4c(c2)C[C@@H](C)OC4=O)C3)ccc2c1COC2=O (single isomer, unassigned) [Example 24B] | – | – | IC50 (Kir1.1 (ROMK1)): 66 nM; IC50 (hROMK (hKir1.1); Thallium Flux Assay IC50): 36.1 nM
11 | Cc1c([C@@H](O)CN2CCN(CC(O)c3ccc(-n4cnnn4)nc3)CC2)ccc2c1COC2=O (single isomer, unassigned) [Example 34A] | – | – | IC50 (Kir1.1 (ROMK1); read-out: EP Assay IC50): 35 nM; IC50 (hROMK (hKir1.1); [3]): 296 nM
12 | Cc1c([C@@H](O)CN2CCN(CC(O)c3ccc(-n4cnnn4)nc3)CC2)ccc2c1COC2=O (single isomer, unassigned) [Example 34B] | – | – | IC50 (Kir1.1 (ROMK1); read-out: EP Assay IC50): 14 nM; IC50 (hROMK (hKir1.1); [3]): 147 nM
13 | Cc1cc(-n2cnnn2)ncc1[C@@H](O)CN1CCN(C[C@H](O)c2ccc3c(c2C)COC3=O)CC1 (single isomer, unassigned) [Example 35A] | 29 nM | 105 nM | –
14 | Cc1cc(-n2cnnn2)ncc1[C@@H](O)CN1CCN(C[C@H](O)c2ccc3c(c2C)COC3=O)CC1 (single isomer, unassigned) [Example 35B] | 32.5 nM | 278 nM | –
15 | Cc1nc(-n2cnnn2)ccc1[C@@H](O)CN1CCN(C[C@H](O)c2ccc3c(c2C)COC3=O)CC1 (single isomer, unassigned) [Example 36A] | 55 nM | 441 nM | –
16 | Cc1nc(-n2cnnn2)ccc1[C@@H](O)CN1CCN(C[C@H](O)c2ccc3c(c2C)COC3=O)CC1 (single isomer, unassigned) [Example 36B] | 24 nM | 171 nM | –
17 | Cc1c([C@@H](O)CN2CCN(C[C@H](O)c3ccc4c(c3)C[C@H](C)OC4=O)CC2)ccc2c1COC2=O (single isomer, unassigned) [Example 37A] | 71 nM | 685 nM | –
18 | Cc1c([C@@H](O)CN2CCN(C[C@H](O)c3ccc4c(c3)C[C@H](C)OC4=O)CC2)ccc2c1COC2=O (single isomer, unassigned) [Example 37B] | 31.5 nM | 48.5 nM | –
19 | Cc1c([C@@H](O)CN2CCN(C[C@H](O)c3ccc4c(c3)C[C@@H](C)OC4=O)CC2)ccc2c1COC2=O (single isomer, unassigned) [Example 38A] | 17.5 nM | 68.5 nM | –
20 | Cc1c([C@@H](O)CN2CCN(C[C@H](O)c3ccc4c(c3)C[C@@H](C)OC4=O)CC2)ccc2c1COC2=O (single isomer, unassigned) [Example 38B] | 29 nM | 33.4 nM | –
21 | Cc1c([C@@H](O)CN2CCN(C[C@@H](O)c3ccc4c(c3)CCS4(=O)=O)CC2)ccc2c1COC2=O (single isomer, unassigned) [Example 43A] | 95 nM | 52.3 nM | –
22 | Cc1c([C@@H](O)CN2CCN(C[C@@H](O)c3ccc4c(c3)CCS4(=O)=O)CC2)ccc2c1COC2=O (single isomer, unassigned) [Example 43B] | – | 52.4 nM | –
23 | Cc1c([C@@H](O)CN2CCN(C[C@H](O)c3ccc4c(c3C)COC4=O)C3(CC3)C2)ccc2c1COC2=O [Example 4, 5,5′-(1R,1′R)-2,2′-(4,7-Diazaspiro[2.5]octane-4,7-diyl)bis(1-hydroxyethane-2,1-diyl)bis(4-methylisobenzofuran-1(3H)-one)] | – | – | IC50 (hROMK (hKir1.1); Thallium Flux Assay IC50): 635 nM
24 | Cc1c([C@@H](O)CN2C3COCC2CN(CC(O)c2ccc(C#N)cn2)C3)ccc2c1COC2=O (stereo partly drawn) [Example 19, 6-(1-Hydroxy-2-(9-((R)-2-hydroxy-2-(4-methyl-1-oxo-1,3-dihydroisobenzofuran-5-yl)ethyl)-3-oxa-7,9-diazabicyclo[3.3.1]nonan-7-yl)ethyl)nicotinonitrile] | – | 1620 nM | –
25 | Cc1c([C@@H](O)CN2CCCCN(C[C@H](O)c3ccc4c(c3C)COC4=O)CC2)ccc2c1COC2=O [Example 27, 5,5′-(1R,1′R)-2,2′-(1,4-Diazocane-1,4-diyl)bis(1-hydroxyethane-2,1-diyl)bis(4-methylisobenzofuran-1(3H)-one)] | – | 697 nM | –

Source: patent US9139585B2 (Merck Sharp & Dohme Corp., priority 2011, dated 2015)
